Assay [1] has as its target T1, EGFR (L858R T790M C797S) (Homo sapiens, UniProt P00533, C797S/L858R/T790M).
T1 construct: purchased SignalChem E10-122VG
The assay is described as follows: Biochemical EGFR inhibition assay (Caliper mobility shift), EGFR LRTMCS mutant. Particulars: inhibitory activity against EGFR LRTMCS mutant; apparent IC50; read-out: Ext Enz LRTMCS. The essentials: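 Kinase reactions at 25 °C run to 10–20% peptide phosphorylation, stopped with 35 mM EDTA. Phosphorylated product and substrate separated electrophoretically by mobility shift. Apparent IC50 from percent activity versus log compound concentration.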

For assay [2], the system named is phosphorylation of EGFR (Tyr1068) in NCI-H1975 cell line that harbors the EGFR L858R T790M mutations. The assay is described as follows: NCI-H1975 pEGFR AlphaLISA assay. The class given is cell-based. Conditions: 4-5 hours incubation, read-out: Ext pEGFR H1975. The essentials:
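Phospho-EGFR Tyr1068 AlphaLISA readout: lysates taken from compound-treated H1975 cells (L858R T790M EGFR) after a 4-5 h exposure at 37 °C. Cells had adhered overnight beforehand. IC50 derived by plotting % pEGFR inhibition against log compound concentration.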

[3] abbreviates: Homo sapiens, NCI-H1975, inhibition of phosphorylation of mutant EGFR in NCI-H1975 cells.

Read-outs that look alike come from different tables or passages of the source.

T1 sequence (P00533 25-1210 T790M/C797S/L858R): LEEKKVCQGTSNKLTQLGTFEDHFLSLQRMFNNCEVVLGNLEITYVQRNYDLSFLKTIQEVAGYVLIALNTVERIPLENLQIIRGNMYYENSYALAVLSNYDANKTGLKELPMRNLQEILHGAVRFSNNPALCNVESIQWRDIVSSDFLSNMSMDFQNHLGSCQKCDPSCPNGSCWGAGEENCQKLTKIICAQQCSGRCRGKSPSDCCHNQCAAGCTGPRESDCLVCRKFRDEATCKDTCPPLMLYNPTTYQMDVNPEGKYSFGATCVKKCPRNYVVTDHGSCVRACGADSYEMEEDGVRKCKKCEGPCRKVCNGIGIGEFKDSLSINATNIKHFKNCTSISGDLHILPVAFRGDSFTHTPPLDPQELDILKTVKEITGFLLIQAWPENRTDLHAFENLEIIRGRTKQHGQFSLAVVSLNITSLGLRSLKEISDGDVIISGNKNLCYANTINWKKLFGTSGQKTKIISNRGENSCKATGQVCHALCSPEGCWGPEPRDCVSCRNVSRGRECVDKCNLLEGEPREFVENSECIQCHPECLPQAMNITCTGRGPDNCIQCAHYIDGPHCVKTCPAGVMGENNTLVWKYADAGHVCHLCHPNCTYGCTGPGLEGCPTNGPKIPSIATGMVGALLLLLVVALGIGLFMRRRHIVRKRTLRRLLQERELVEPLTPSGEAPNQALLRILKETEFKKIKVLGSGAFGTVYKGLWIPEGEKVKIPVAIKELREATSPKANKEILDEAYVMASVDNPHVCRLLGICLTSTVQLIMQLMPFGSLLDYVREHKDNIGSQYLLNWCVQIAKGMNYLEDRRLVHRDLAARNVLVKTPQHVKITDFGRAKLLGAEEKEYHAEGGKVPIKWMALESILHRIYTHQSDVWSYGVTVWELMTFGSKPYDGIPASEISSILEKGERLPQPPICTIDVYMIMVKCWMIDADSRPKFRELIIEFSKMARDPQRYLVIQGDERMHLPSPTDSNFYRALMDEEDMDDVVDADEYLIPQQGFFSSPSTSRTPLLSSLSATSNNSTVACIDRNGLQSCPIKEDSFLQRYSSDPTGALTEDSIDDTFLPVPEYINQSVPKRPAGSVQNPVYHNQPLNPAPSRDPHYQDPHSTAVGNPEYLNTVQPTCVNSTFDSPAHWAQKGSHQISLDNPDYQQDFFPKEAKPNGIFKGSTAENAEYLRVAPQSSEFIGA

With `CO[C@@H]1[C@H](F)CN(c2nccc(Nc3cc4c(C(C)C)ccc(N5C[C@H](CS(C)(=O)=O)[C@H]5C)c4cn3)n2)C[C@@H]1O` (single isomer, unassigned) [Compound 202, (3S,4S,5R)-5-fluoro-1-[4-({8-[(2R,3S)-3-(methanesulfonylmethyl)-2-methylazetidin-1-yl]-5-(propan-2-yl)isoquinolin-3-yl}amino)pyrimidin-2-yl]-4-methoxypiperidin-3-ol or (3R,4R,5S)-5-fluoro-1-[4-({8-[(2R,3S)-3-(methanesulfonylmethyl)-2-methylazetidin-1-yl]-5-(propan-2-yl)isoquinolin-3-yl}amino)pyrimidin-2-yl]-4-methoxypiperidin-3-ol], the IC50 in assay [1] was 0.0201 to 0.03 µM; in assay [2] (setting [3]), 0.0101 to 0.02 µM.
As for `CO[C@@H]1[C@H](F)CN(c2nccc(Nc3cc4c(C(C)C)ccc(N5C[C@H](CS(C)(=O)=O)[C@H]5C)c4cn3)n2)C[C@@H]1O` (single isomer, unassigned) [Compound 203, (3R,4R,5S)-5-fluoro-1-[4-({8-[(2R,3S)-3-(methanesulfonylmethyl)-2-methylazetidin-1-yl]-5-(propan-2-yl)isoquinolin-3-yl}amino)pyrimidin-2-yl]-4-methoxypiperidin-3-ol or (3S,4S,5R)-5-fluoro-1-[4-({8-[(2R,3S)-3-(methanesulfonylmethyl)-2-methylazetidin-1-yl]-5-(propan-2-yl)isoquinolin-3-yl}amino)pyrimidin-2-yl]-4-methoxypiperidin-3-ol], the IC50 in assay [1] is 0.0151 to 0.02 µM; in assay [2] (inhibition of phosphorylation of mutant EGFR in NCI-H1975 cells), no more than 0.01 µM.
In the case of `CO[C@@H]1CN(c2nccc(Nc3cc4c(C(C)C)ccc(N5C[C@H](CS(C)(=O)=O)[C@H]5C)c4cn3)n2)C[C@H](F)[C@@H]1O` (single isomer, unassigned) [Compound 204, (3S,4R,5R)-3-fluoro-1-[4-({8-[(2R,3S)-3-(methanesulfonylmethyl)-2-methylazetidin-1-yl]-5-(propan-2-yl)isoquinolin-3-yl}amino)pyrimidin-2-yl]-5-methoxypiperidin-4-ol or (3R,4S,5S)-3-fluoro-1-[4-({8-[(2R,3S)-3-(methanesulfonylmethyl)-2-methylazetidin-1-yl]-5-(propan-2-yl)isoquinolin-3-yl}amino)pyrimidin-2-yl]-5-methoxypiperidin-4-ol], the IC50 in assay [1] was no more than 0.015 µM; in assay [2] (setting [3]), no more than 0.01 µM.
The corresponding values for `CO[C@H]1CCN(c2nccc(Nc3cc4c([C@@H](C)CO)cnc(N5C[C@H](CS(C)(=O)=O)[C@H]5C)c4cn3)n2)C[C@H]1F` (single isomer, unassigned) [Compound 208, (2R)-2-[6-({2-[(3R,4S)-3-fluoro-4-methoxypiperidin-1-yl]pyrimidin-4-yl}amino)-1-[(2R,3S)-3-(methanesulfonylmethyl)-2-methylazetidin-1-yl]-2,7-naphthyridin-4-yl]propan-1-ol or (2S)-2-[6-({2-[(3R,4S)-3-fluoro-4-methoxypiperidin-1-yl]pyrimidin-4-yl}amino)-1-[(2R,3S)-3-(methanesulfonylmethyl)-2-methylazetidin-1-yl]-2,7-naphthyridin-4-yl]propan-1-ol] are no more than 0.015 µM and 0.0101 to 0.02 µM.
Take `CC(C)c1nnc(N2CC(CS(C)(=O)=O)C2)c2cnc(Nc3ccnc(N4CC[C@]5(CCO5)C(F)(F)C4)n3)cc12` (single isomer, unassigned) [Compound 209, (S)-N-(2-(5,5-difluoro-1-oxa-7-azaspiro[3.5]nonan-7-yl)pyrimidin-4-yl)-1-isopropyl-4-(3-((methylsulfonyl)methyl)azetidin-1-yl)pyrido[3,4-d]pyridazin-7-amine or (R)-N-(2-(5,5-difluoro-1-oxa-7-azaspiro[3.5]nonan-7-yl)pyrimidin-4-yl)-1-isopropyl-4-(3-((methylsulfonyl)methyl)azetidin-1-yl)pyrido[3,4-d]pyridazin-7-amine]: the figures for the IC50 in assay [1] and in assay [2] (setting [3]) were no more than 0.015 µM and 0.0301 to 0.05 µM, respectively.
The corresponding values for `CC(C)c1ccc(N2C[C@H](CS(C)(=O)=O)[C@H]2C)c2cnc(Nc3ccnc(N4CC[C@](C)(O)C(F)(F)C4)n3)cc12` (single isomer, unassigned) [Compound 210, (4S)-3,3-difluoro-1-[4-({8-[(2R,3S)-3-(methanesulfonylmethyl)-2-methylazetidin-1-yl]-5-(propan-2-yl)isoquinolin-3-yl}amino)pyrimidin-2-yl]-4-methylpiperidin-4-ol or (4R)-3,3-difluoro-1-[4-({8-[(2R,3S)-3-(methanesulfonylmethyl)-2-methylazetidin-1-yl]-5-(propan-2-yl)isoquinolin-3-yl}amino)pyrimidin-2-yl]-4-methylpiperidin-4-ol] are 0.0201 to 0.03 µM and 0.0101 to 0.02 µM.
As for `CC(C)c1ccc(N2C[C@H](CS(C)(=O)=O)[C@H]2C)c2cnc(Nc3ccnc(N4CC[C@@](C)(O)C(F)(F)C4)n3)cc12` (single isomer, unassigned) [Compound 211, (R)-3,3-difluoro-1-(4-(5-isopropyl-8-((2R,3S)-2-methyl-3-(methylsulfonylmethyl)azetidin-1-yl)isoquinolin-3-ylamino)pyrimidin-2-yl)-4-methylpiperidin-4-ol or (S)-3,3-difluoro-1-(4-(5-isopropyl-8-((2R,3S)-2-methyl-3-(methylsulfonylmethyl)azetidin-1-yl)isoquinolin-3-ylamino)pyrimidin-2-yl)-4-methylpiperidin-4-ol], the IC50 in assay [1] is 0.0201 to 0.03 µM; in assay [2] (setting [3]), no more than 0.01 µM.
The matching figures for `CC(C)c1ccc(N2C[C@H](CS(C)(=O)=O)[C@H]2C)c2cnc(Nc3ccnc(N4C[C@@H](F)[C@@H](O)[C@](C)(F)C4)n3)cc12` (single isomer, unassigned) [Compound 212, (3R,4R,5R)-3,5-difluoro-1-[4-({8-[(2R,3S)-3-(methanesulfonylmethyl)-2-methylazetidin-1-yl]-5-(propan-2-yl)isoquinolin-3-yl}amino)pyrimidin-2-yl]-3-methylpiperidin-4-ol or (3S,4S,5S)-3,5-difluoro-1-[4-({8-[(2R,3S)-3-(methanesulfonylmethyl)-2-methylazetidin-1-yl]-5-(propan-2-yl)isoquinolin-3-yl}amino)pyrimidin-2-yl]-3-methylpiperidin-4-ol]: no more than 0.015 µM and no more than 0.01 µM.
The matching figures for `CC(C)c1ccc(N2CC(CS(C)(=O)=O)C2)c2cnc(Nc3ccnc(N4CC(C)(C)[C@H](O)C(F)(F)C4)n3)cc12` (single isomer, unassigned) [Compound 213, (4S)-3,3-difluoro-1-[4-({8-[3-(methanesulfonylmethyl)azetidin-1-yl]-5-(propan-2-yl)isoquinolin-3-yl}amino)pyrimidin-2-yl]-5,5-dimethylpiperidin-4-ol or (4R)-3,3-difluoro-1-[4-({8-[3-(methanesulfonylmethyl)azetidin-1-yl]-5-(propan-2-yl)isoquinolin-3-yl}amino)pyrimidin-2-yl]-5,5-dimethylpiperidin-4-ol]: no more than 0.015 µM and no more than 0.01 µM.
As for `CC(C)c1ncc(N2C[C@H](CS(C)(=O)=O)[C@H]2C)c2cnc(Nc3ccnc(N4CC[C@@](C)(O)C(F)(F)C4)n3)cc12` (single isomer, unassigned) [Compound 214, (4R)-3,3-difluoro-1-[4-({8-[(2R,3S)-3-(methanesulfonylmethyl)-2-methylazetidin-1-yl]-5-(propan-2-yl)-2,6-naphthyridin-3-yl}amino)pyrimidin-2-yl]-4-methylpiperidin-4-ol or (4S)-3,3-difluoro-1-[4-({8-[(2R,3S)-3-(methanesulfonylmethyl)-2-methylazetidin-1-yl]-5-(propan-2-yl)-2,6-naphthyridin-3-yl}amino)pyrimidin-2-yl]-4-methylpiperidin-4-ol], the IC50 in assay [1] was no more than 0.015 µM; in assay [2] (setting [3]), no more than 0.01 µM.
In the case of `CC(C)c1cnc(N2C[C@H](CS(C)(=O)=O)[C@H]2C)c2cnc(Nc3ccnc(N4CC[C@@](C)(O)C(F)(F)C4)n3)cc12` (single isomer, unassigned) [Compound 215, (4R)-3,3-difluoro-1-[4-({8-[(2R,3S)-3-(methanesulfonylmethyl)-2-methylazetidin-1-yl]-5-(propan-2-yl)-2,7-naphthyridin-3-yl}amino)pyrimidin-2-yl]-4-methylpiperidin-4-ol or (4S)-3,3-difluoro-1-[4-({8-[(2R,3S)-3-(methanesulfonylmethyl)-2-methylazetidin-1-yl]-5-(propan-2-yl)-2,7-naphthyridin-3-yl}amino)pyrimidin-2-yl]-4-methylpiperidin-4-ol], the IC50 is no more than 0.015 µM in assay [1] and no more than 0.01 µM in assay [2] (setting [3]).
The corresponding values for `COCCO[C@H]1CCN(c2nccc(Nc3cc4c(F)ccc(N5C[C@H](CS(C)(=O)=O)[C@H]5C)c4cn3)n2)C[C@H]1F` (single isomer, unassigned) [Compound 216] are no more than 0.015 µM and 0.0101 to 0.02 µM.
The corresponding values for `COCCO[C@@H]1CCN(c2nccc(Nc3cc4c(F)ccc(N5C[C@H](CS(C)(=O)=O)[C@H]5C)c4cn3)n2)C[C@@H]1F` (single isomer, unassigned) [Compound 217] are no more than 0.015 µM and 0.0201 to 0.03 µM.
The corresponding values for `CO[C@@H]1[C@H](O)CN(c2nccc(Nc3cc4c(C(C)C)ccc(N5CC(CS(C)(=O)=O)C5)c4cn3)n2)CC1(F)F` (single isomer, unassigned) [Compound 218, rac-5,5-difluoro-1-[4-[[5-isopropyl-8-[3-(methylsulfonylmethyl)azetidin-1-yl]-3-isoquinolyl]amino]pyrimidin-2-yl]-4-methoxy-piperidin-3-ol] are no more than 0.015 µM and no more than 0.01 µM.
